Experiments:
[1] = tested on: CFTR−/− mice; test: Fatty acid levels (GC/MS) in pancreas and lung cells of CFTR−/− mice fed n-3 fatty acids; type: in vivo, mouse; conditions: CFTR-/- mice, 40 mg/day for one week (fish oil: dose equivalent to 40 mg DHA, 60 mg EPA, 15 mg LNA); mean ± S.D.
[2] = tested on: CFTR−/− mice; test: as above; type: in vivo, mouse; conditions: CFTR-/- mice, 40 mg/day for one week (fish oil: dose equivalent to 40 mg DHA, 60 mg EPA, 15 mg LNA); mean ± S.D.; remark: listed apart in the source
Method: Mouse pancreatic acinar and lung cell suspensions were prepared from wild type (n=3) and CFTR−/− mice (n=3) by enzymatic and mechanical dissociation. In addition, brain, kidney, heart, spleen, and blood were sonicated in 0.3M sucrose buffer. Membrane lipids were extracted from cell and organ preparations with 20 volumes of chloroform-methanol 2:1 (v/v), transmethylated with 0.5 mL of 0.1 N methanolic-NaOH/BF3 reagent, and the resulting fatty acid methyl esters analyzed by gas chromatography/mass spectrometry (GC/MS). In a different set of experiments, lipids were fractionated by aminopropyl column chromatography into triglycerides, cholesterol esters, and phosphoglycerides and the fatty acid composition of each lipid class determined by a combination of enzymatic hydrolysis, transmethylation, and GC/MS.
Cystic fibrosis (UNC strain) and wild type mice (12-20 grams body weight) were fed with a complete liquid enteral formulation (Peptamen™, Nestle Clinical Nutrition, Inc.) supplemented with different quantities of the DHA-containing formulation Neuromins (Nature's Way Products Inc., Springville, Utah). DHA content in the Neuromins formulation was 100 mg per 500 mg of formulation. Mice were fed once a day at about 11 a.m., seven days a week with 20 ml of Peptamen™ supplemented with the various amounts of either Neuramins, free DHA (Sigma Chemical Co., MO) or DHA-ethyl ester (Nu-Check-Prep, Inc. MN) ranging from 0.5 mg/day of DHA to 40 mg/day of DHA.
Lung and acinar cells were isolated from a CF mouse fed with DHA formula (mouse-1, 40 mg/day DHA). The pellets (0.5 mL for pancreas cell homogenate and 0.6 mL for lung cell homogenate) were extracted with 3 mL of chloroform-methanol 2:1 (v/v). The resulting emulsion was vortexed, centrifuged at 800 g for 3 min., and the lower phase aspirated. The residual upper phase was partitioned again with 3 mL of chloroform-methanol 2:1 (v/v), the lower phase aspirated and both lower phases combined. Fractions were evaporated to dryness, processed for fatty acid methyl esters (FAME) and were analyzed by GC-MS analysis. Aliquots of 10 μL of 17:0 methyl ester solution in hexane [1 μg/μL] were added to the samples after methylation.
(§1) Lung and acinar cells were isolated from a CF and a wild-type (WT) mouse fed with DHA formula. The pellets (0.5 mL for pancreas cell homogenate and 0.6 mL for lung cell homogenate) were extracted with 3 mL of chloroform-methanol 2:1 (v/v). The resulting emulsion was vortexed, centrifuged at 800 g for 3 min., and the lower phase aspirated. The residual upper phase was partitioned again with 3 mL of chloroform-methanol 2:1 (v/v), the lower phase aspirated and both lower phases combined. Fractions were evaporated to dryness, processed for FAME and analyzed by GC-MS. Aliquots of 20 μL of 17:0 in chloroform-methanol 2:1 (v/v) were added to the samples before methylation.
as §1, with “from” for “from a”, “mice” for “and a wild-type (WT) mouse”, “different doses of DHA, i.e., 0.5 mg/day, 2.0 mg/day, 10 mg/day or 40 mg/day DHA.” for “DHA formula.”, “pellets” for “pellets (0.5 mL for pancreas cell homogenate and 0.6 mL for lung cell homogenate)”, “30” for “20”
CFTR−/− mice were prepared as described in Example 1. Both CFTR−/− mice and wild type mice were euthanized with carbon dioxide, and cell suspensions from pancreas and lung isolated.

Structure (SMILES): CC/C=C\C/C=C\C/C=C\C/C=C\C/C=C\CCCC(=O)O [EPA, Eicosapentaenoic acid, reference compound]
- AA level in pancreas [1]: 5.1 ± 0.3 nmol/mg
- DHA level in pancreas [2]: 2.2 ± 0.4 nmol/mg

Reference: patent publication US20040127567A1, “Novel methods for treating disorders in which docosahexaenoic acid (DHA) levels are affected” (Beth Israel Deaconess Medical Center, Inc., priority 1998, published 2004)
